Read-outs that look alike come from different tables or passages of the source.
System: PKC mediated IL-2 production
Assay: IL-2 ELISA, human primary T cell, anti CD3+CD28+ (whole cell functional assay)
Type: cell-based
Experimental: Human primary T cells were prepared as follows. Fresh PBMC's from All Cells (Cat # PB002) were re-suspended in RPMI (RPMI-1640 with L-Glutamine; Mediatech, Inc., Herndon Va., cat. #10-040-CM) with 10% FBS and seeded into flasks and incubated at 37° C. for 2 hours to allow the monocytes to adhere. The non-adherent cells were then centrifuged and re-suspended in RPMI medium containing 40 U/ml IL2 and seeded into a flask pre-coated with 1 μg/ml aCD3 and 5 ug/ml aCD28 (Anti-Human CD3, BD Pharmingen Catalog #555336, Anti-Human CD28, Beckman Coulter Catalog # IM1376). The cells were stimulated for 3-4 days, then transferred to a fresh flask and maintained in RPMI (RPMI-1640 with L-Glutamine; Mediatech, Inc., Herndon Va., cat. #10-040-CM) with 10% FBS and 40 U/ml IL-2.
(§1) Human primary T cells (100,000 cells per well) were pre-incubated with or without test compound in RPMI-1640 with L-Glutamine and 10% FBS for 1 hour at 37° C. Cells were then stimulated by transferring them to round-bottom 96-well plates pre-coated with 1 μg/ml αCD3 and 5 μg/ml αCD28. For counter assay, cells were instead stimulated by adding 8× stock solutions of PMA and ionomycin in RPMI-1640 with L-Glutamine and 10% FBS (for final concentrations of 0.5 ng/ml PMA and 0.1 μM ionomycin, both from Calbiochem). Cells were incubated at 37° C. for 24 hours before 100 μL supernatants were harvested for quantification of IL-2 by ELISA using Human IL-2 Duoset ELISA Kit from R and D Systems, Cat. # DY202E.
Compounds 1-90 were tested in a whole cell functional assay for PKC mediated IL-2 production as follows. Human primary T cell isolation and culture: Human primary T cells were prepared as follows. Whole blood was obtained from a healthy volunteer, mixed 1:1 with PBS, layered on to Ficoll Hypaque (Amersham Pharmacia Biotech, Piscataway, N.J., Catalog #17-1440-03) in 2:1 blood/PBS:ficoll ratio and centrifuged for 30 minutes at 4° C. at 1750 rpm. The cells at the serum: ficoll interface were recovered and washed twice with 5 volumes of PBS. These freshly isolated human peripheral blood mononuclear cells were cultured in Yssel's medium containing 40 U/ml IL2 in a flask pre-coated with 1 μg/ml αCD3 and 5 μg/ml αCD28 (Anti-Human CD3, BD Pharmingen Catalog #555336, Anti-Human CD28, Beckman Coulter Catalog # IM1376). The cells were stimulated for 3-4 days, then transferred to a fresh flask and maintained in RPMI (RPMI-1640 with L-Glutamine; Mediatech, Inc., Herndon Va., cat. #10-040-CM) with 10% FBS and 40 U/ml IL-2. The primary T-cells were then washed twice with PBS to remove the IL-2.
as §1, with “Primary T cell stimulation and IL2 ELISA: Human primary” for “Human primary”, “compound in Yssel's medium for 1” for “compound in RPMI-1640 with L-Glutamine and 10% FBS for 1”, “ionomycin in Yssels (for final” for “ionomycin in RPMI-1640 with L-Glutamine and 10% FBS (for final”, “and 0.1 uM ionomycin, both” for “and 0.1 μM ionomycin, both”

[1] = Homo sapiens, T-cell, 24 h, IL-2 production, human primary T cells stimulated with αCD3 and αCD28, 24 hours, IL-2 by ELISA, read-out: EC50
[2] = Homo sapiens, T-cell, human primary T cells stimulated with αCD3 and αCD28, IL-2 by ELISA, read-out: EC50 (blocked IL-2 production)
[3] = IL-2 production, human primary T cells stimulated with αCD3 and αCD28, 24 hours, IL-2 by ELISA, read-out: EC50

Row | Structure (SMILES) | EC50 [1] [µM] | EC50 [2] [µM] | EC50 [3] [µM]
1 | Cc1ccc(Nc2ncc(F)c(N[C@H]3C[C@@H]4CC(F)(F)CN4C(C)(C)C3)n2)cc1C#N [Compound 44, (4-((7S,8aR)-2,2-difluoro-octahydro-5,5-dimethylindolizin-7-ylamino)-5-fluoropyrimidin-2-ylamino)-2-methylbenzonitrile] | < 10 | < 10 | 
2 | Cn1nnn(-c2cc(Nc3ncc(F)c(N[C@@H]4C[C@@H]5CC(F)(F)CN5C(C)(C)C4)n3)c(F)cc2C2CC2)c1=O [Compound 45, 1-(5-(4-((7R,8aR)-2,2-difluoro-octahydro-5,5-dimethylindolizin-7-ylamino)-5-fluoropyrimidin-2-ylamino)-2-cyclopropyl-4-fluorophenyl)-4-methyl-1H-tetrazol-5(4H)-one] | < 10 | < 10 | 
3 | CC1(C)C[C@H](Nc2nc(Nc3cc(-n4cnnn4)c(C4CC4)cc3F)ncc2F)C[C@@H]2CC(F)(F)CN21 [Compound 46, N^2-(4-cyclopropyl-2-fluoro-5-(1H-tetrazol-1-yl)phenyl)-5-fluoro-N^4-((7R,8aR)-2,2-difluoro-octahydro-5,5-dimethylindolizin-7-yl)pyrimidine-2,4-diamine] | < 1 | < 10 | 
4 | Cn1nnn(-c2cc(Nc3ncc(F)c(N[C@H]4C[C@@H]5C[C@@H](F)CN5C(C)(C)C4)n3)c(F)cc2C2CC2)c1=O [Compound 65, 1-(5-(4-((2R,7S,8aR)-2-fluoro-octahydro-5,5-dimethylindolizin-7-ylamino)-5-fluoropyrimidin-2-ylamino)-2-cyclopropyl-4-fluorophenyl)-4-methyl-1H-tetrazol-5(4H)-one] | < 10 | < 10 | 
5 | Cn1nnn(-c2cc(Nc3ncc(C#N)c(NC4CC5CCCN5C(C)(C)C4)n3)c(F)cc2C2CC2)c1=O (stereo not drawn) [Compound 66, 4-((R/S,S/R)-Octahydro-5,5-dimethylindolizin-7-ylamino)-2-(4-cyclopropyl-2-fluoro-5-(4,5-dihydro-4-methyl-5-oxotetrazol-yl)phenylamino) pyrimidine-5-carbonitrile] |  |  | < 0.1
6 | Cn1nnn(-c2cc(Nc3ncc(F)c(N[C@@H]4C[C@@H]5C[C@@H](O)CN5C(C)(C)C4)n3)c(F)cc2C2CC2)c1=O [Compound 68, 1-(5-(4-((2R,7R,8aR)-2-hydroxy-octahydro-5,5-dimethylindolizin-7-ylamino)-5-fluoropyrimidin-2-ylamino)-2-cyclopropyl-4-fluorophenyl)-4-methyl-1H-tetrazol-5(4H)-one] | < 0.5 | < 10 | 
7 | CC1(C)C[C@H](Nc2nc(Nc3cc(S(F)(F)(F)(F)F)ccc3F)ncc2F)C[C@@H]2CCCN21 [Compound 71] | < 1 | < 10 | 
8 | CC(=O)N(C)c1cc(Nc2ncc(F)c(NC3CC(C)(C)N4CCCC4C3C)n2)c(F)cc1C1CC1 (stereo not drawn) [Compound 73] |  |  | < 0.5
9 | CC1C(Nc2nc(Nc3cc(N(C)C(=O)N(C)C)c(C4CC4)cc3F)ncc2F)CC(C)(C)N2CCCC12 (stereo not drawn) [Compound 74] |  |  | < 0.5
10 | CC1C(Nc2nc(Nc3cc(OC(F)F)c(C4CC4)cc3F)ncc2F)CC(C)(C)N2CCCC12 (stereo not drawn) [Compound 75] |  |  | < 0.5

The remaining lines, values ahead:

Row | EC50 [1] [µM] | EC50 [2] [µM] | EC50 [3] [µM] | Structure (SMILES)
11 | < 0.1 | < 10 |  | Cn1nnn(-c2cc(Nc3ncc(F)c(NC4CC5CCCN5C(C)(C)C4)n3)ccc2O[C@@H]2CCOC2)c1=O (stereo partly drawn) [Compound 47, 1-(2-((R)-tetrahydrofuran-3-yloxy)-5-(5-fluoro-4-(octahydro-5,5-dimethylindolizin-7-ylamino)pyrimidin-2-ylamino)phenyl)-4-methyl-1H-tetrazol-5(4H)-one]
12 | < 0.1 | < 10 |  | Cn1nnn(-c2cc(Nc3ncc(F)c(N[C@@H]4C[C@@H]5CCCN5C(C)(C)C4)n3)ccc2O[C@@H]2CCOC2)c1=O [Compound 48, 1-(2-((R)-tetrahydrofuran-3-yloxy)-5-(5-fluoro-4-(octahydro-5,5-dimethylindolizin-7-ylamino)pyrimidin-2-ylamino)phenyl)-4-methyl-1H-tetrazol-5(4H)-one]
13 | < 0.1 | < 10 |  | Cn1nnn(-c2cc(Nc3ncc(F)c(NC4CC5CCCN5C(C)(C)C4)n3)ccc2O[C@H]2CCOC2)c1=O (stereo partly drawn) [Compound 49, 1-(2-((S)-tetrahydrofuran-3-yloxy)-5-(5-fluoro-4-(octahydro-5,5-dimethylindolizin-7-ylamino)pyrimidin-2-ylamino)phenyl)-4-methyl-1H-tetrazol-5(4H)-one]
14 | < 0.1 | < 10 |  | Cn1nnn(-c2cc(Nc3ncc(F)c(N[C@@H]4C[C@@H]5CCCN5C(C)(C)C4)n3)ccc2O[C@H]2CCOC2)c1=O [Compound 50, 1-(2-((S)-tetrahydrofuran-3-yloxy)-5-(5-fluoro-4-(octahydro-5,5-dimethylindolizin-7-ylamino)pyrimidin-2-ylamino)phenyl)-4-methyl-1H-tetrazol-5(4H)-one]
15 | < 0.5 | < 10 |  | Cn1nnn(-c2cc(Nc3ncc(F)c(N[C@@H]4C[C@@H]5CCCN5C(C)(C)C4)n3)ccc2OC2CCOCC2)c1=O [Compound 52, 1-(5-(5-fluoro-4-(octahydro-5,5-dimethylindolizin-7-ylamino)pyrimidin-2-ylamino)-2-(tetrahydro-2H-pyran-4-yloxy)phenyl)-4-methyl-1H-tetrazol-5(4H)-one]
16 | < 0.5 | < 10 |  | CC1(C)CC(Nc2nc(Nc3ccc(O[C@@H]4CCOC4)c(C#N)c3)ncc2F)CC2CCCN21 (stereo partly drawn) [Compound 57, 2-((R)-tetrahydrofuran-3-yloxy)-5-(5-fluoro-4-(octahydro-5,5-dimethylindolizin-7-ylamino)pyrimidin-2-ylamino)benzonitrile]
17 | < 0.5 | < 10 |  | CC1(C)CC(Nc2nc(Nc3ccc(O[C@H]4CCOC4)c(C#N)c3)ncc2F)CC2CCCN21 (stereo partly drawn) [Compound 60, 2-((S)-tetrahydrofuran-3-yloxy)-5-(5-fluoro-4-(octahydro-5,5-dimethylindolizin-7-ylamino)pyrimidin-2-ylamino)benzonitrile]
18 | < 0.5 | < 10 |  | Cn1nnn(-c2cc(Nc3ncc(F)c(N[C@@H]4C[C@@H]5C[C@@H](F)CN5C(C)(C)C4)n3)c(F)cc2C2CC2)c1=O [Compound 64, 1-(5-(4-((2R,7R,8aR)-2-fluoro-octahydro-5,5-dimethylindolizin-7-ylamino)-5-fluoropyrimidin-2-ylamino)-2-cyclopropyl-4-fluorophenyl)-4-methyl-1H-tetrazol-5(4H)-one]
19 | < 0.5 | < 10 |  | Cn1nnn(-c2cc(Nc3ncc(F)c(N[C@@H]4C[C@@H]5C[C@H](F)CN5C(C)(C)C4)n3)c(F)cc2C2CC2)c1=O [Compound 67, 1-(5-(4-((2S,7R,8aR)-2-fluoro-octahydro-5,5-dimethylindolizin-7-ylamino)-5-fluoropyrimidin-2-ylamino)-2-cyclopropyl-4-fluorophenyl)-4-methyl-1H-tetrazol-5(4H)-one]
20 | < 0.1 | < 10 |  | Cn1nnn(-c2cc(Nc3ncc(C#N)c(N[C@@H]4CC5CCCN5C(C)(C)C4)n3)c(F)cc2C2CC2)c1=O (stereo partly drawn) [Compound 76]

Reference: patent US10792282B2, “Protein kinase C inhibitors and uses thereof” (Rigel Pharmaceuticals, Inc., priority 2013, dated 2020)
